According to ChEMBL document CHEMBL3046719, “Photooxygenation of Nimonol, a Tetranortriterpenoid from Azadirachta indica. A. Juss” (2002):

What was measured:
Assay type in all cases: functional
Spodoptera litura [1] = experiment: Antifeedant activity against Spodoptera litura at 1 ug
Spodoptera litura [2] = experiment: Antifeedant activity against Spodoptera litura at 0.5 ug
Spodoptera litura [3] = experiment: Antifeedant activity against Spodoptera litura at 5 ug

Structure (SMILES) | Activity (Spodoptera litura [1]) | Activity (Spodoptera litura [2]) | Activity (Spodoptera litura [3])
C/C=C(\C)C(=O)O[C@H]1C[C@@H](OC(C)=O)[C@@]2(C(=O)OC)CO[C@H]3[C@@H](O)[C@@](C)([C@]45O[C@@]4(C)[C@@H]4C[C@H]5O[C@@H]5OC=C[C@@]54O)[C@H]4[C@]1(CO[C@]4(O)C(=O)OC)[C@@H]32 [AZADIRACHTIN A] | 85.5% | 83.3% | 100%
CC(=O)O[C@@H]1[C@H](O)[C@H]2C(C)(C)C(=O)C=C[C@]2(C)[C@H]2CC[C@@]3(C)[C@H](C45CC(O)OC4O5)C[C@@H]4O[C@@]43[C@]12C (some centres not stated) [NIMONOL PP2] | 68.7% | 55.3% | 73.5%
CC(=O)O[C@@H]1[C@H](O)[C@H]2C(C)(C)C(=O)C=C[C@]2(C)[C@H]2CC[C@@]3(C)[C@H](C4=CC(O)OC4=O)C[C@@H]4O[C@@]43[C@]12C (some centres not stated) [NIMONOLIDE] | 80.2% | 67.5% | 82.5%
CC(=O)O[C@@H]1[C@H](O)[C@H]2C(C)(C)C(=O)C=C[C@]2(C)[C@H]2CC[C@]3(C)C(=CC[C@H]3c3ccoc3)[C@]12C [NIMONOL] | 55.7% | 32.5% | 32.2%
